Reference: patent EP0745595A1, “3-(3-Aryloxyphenyl)-1-(substituted methyl)-s-triazine-2,4,6-oxo or thiotrione herbicidal agents” (American Cyanamid Company, priority 1995, dated 1996)

Assays:
Assay type in all cases: in vivo
[1] = system: ORYZA SATIVA, L. TEBONNET; experiment: Rice tolerance to post-transplant applications under flooded paddy conditions, ORYSAT (Rice, Tebonnet); conditions: post-transplant rice, 3-4 weeks after treatment
Protocol: (§1) Results of herbicide evaluation are expressed on a rating scale (0-9). The scale is based upon a visual observation of plant stand, vigor, malformation, size, chlorosis and overall plant appearance as compared with a control.
The tolerance of transplanted rice to post-transplanted herbicide applications is determined as follows: two ten-day-old rice seedlings (CV. Tebonnet) are transplanted into a silt loam soil in 32 oz. plastic containers with a diameter of 10.5 cm and no drainage holes. After transplanting the containers are flooded and the water level is maintained at 1.5 to 3 cm above the soil surface. […] The treated containers are placed on greenhouse benches, watered such that the water level is maintained as stated above, and cared for according to normal greenhouse procedures. Three to four weeks after treatment the test is terminated and each container is examined and herbicidal effect rated according to the rating system provided in Example 40. The compounds evaluated are reported by compound number given in Example 40.
(§2) Plant species employed in this example are reported by header abbreviation, common name and scientific name.

[2] = system: SAGITTARIA PYGMAEA, L.; experiment: Preemergence weed control under flooded paddy conditions, SAGPY (Arrowhead (Pygmaea)); conditions: preemergence, 3-4 weeks after treatment
Protocol: as §1
(§3) Preemergence herbicidal activity under flooded paddy conditions is determined as follows: plant seeds or propagating organs are planted in the top 0.5 cm of silt loam soil in 32 oz. plastic containers with a diameter of 10.5 cm and no drainage holes. Water is added to these containers and maintained at 1.5 to 3 cm above the soil surface for the duration of the experiment. […] The treated containers are placed on greenhouse benches and cared for according to normal greenhouse procedures.- Three to four weeks after treatment the test is terminated and each container is examined and herbicidal effect rated according to the rating system provided in Example 40. The compounds evaluated are reported by compound number given in Example 40.
as §2

[3] = system: IPOMOEA SPP.; experiment: Postemergence herbicidal evaluation, IPOSS (Morningglory spp.); conditions: rated four to five weeks after treatment, averaged
Protocol: (§4) In the tests, seedling plants are grown in jiffy flats for about two weeks. The test compounds are dispersed in 50/50 acetone/water mixtures containing 0.5% TWEEN®20, a polyoxyethylene sorbitan monolaurate surfactant of Atlas Chemical Industries, […] to the plants through a spray nozzle operating at 40 psi for a predetermined time. After spraying, the plants are placed on greenhouse benches and are cared for in the usual manner, commensurate with conventional greenhouse practices. From four to five weeks after treatment, the seedling plants are examined and rated according to the rating system set forth below. Where more than one test is involved for a given compound, the data are averaged.
(§5) Plant species employed in these evaluations are reported by header abbreviation, common name and scientific name.
as §1

[4] = system: ABUTILON THEOPHRASTI, MEDIC.; experiment: Postemergence herbicidal evaluation, ABUTH (Velvetleaf); conditions: rated four to five weeks after treatment, averaged
Protocol: as §4, §5, §1

[5] = system: CASSIA OBTUSIFOLIA, L.; experiment: Postemergence herbicidal evaluation, CASOB (Sicklepod); conditions: rated four to five weeks after treatment, averaged
Protocol: (§6) In the tests, seedling plants are grown in jiffy flats for about two weeks. The test compounds are dispersed in 50/50 acetone/water mixtures containing 0.5% TWEEN®20, a polyoxyethylene sorbitan monolaurate surfactant of Atlas Chemical Industries, in sufficient quantities to provide the equivalent of about 0.125 kg to 0.500 kg per hectare of active compound when applied to the plants through a spray nozzle operating at 40 psi for a predetermined time. After spraying, the plants are placed on greenhouse benches and are cared for in the usual manner, commensurate with conventional greenhouse practices. From four to five weeks after treatment, the seedling plants are examined and rated according to the rating system set forth below. Where more than one test is involved for a given compound, the data are averaged.
as §5, §1

[6] = system: GALIUM APARINE; experiment: Postemergence herbicidal evaluation, GALAP (Galium); conditions: rated four to five weeks after treatment, averaged
Protocol: as §6, §5, §1

[7] = system: […], PRESL.; experiment: Preemergence weed control under flooded paddy conditions, MOOVA (Monochoria); conditions: preemergence, 3-4 weeks after treatment
Protocol: as §1
Preemergence herbicidal activity under flooded paddy conditions is determined as follows: plant seeds or propagating organs are planted in the top 0.5 cm of silt loam soil in 32 oz. plastic containers with a diameter of 10.5 cm and no drainage holes. Water is added to these containers and maintained at 1.5 to 3 cm above the soil surface for the duration of the experiment. The test compounds are applied as aqueous/acetone mixtures 50/50 v/v pipetted directly into the flood water to give the equivalent of about 0.5, 0.25, 0.125 and 0.063 kg/ha of active ingredient. The treated containers are placed on greenhouse benches and cared for according to normal greenhouse procedures.- Three to four weeks after treatment the test is terminated and each container is examined and herbicidal effect rated according to the rating system provided in Example 40. The compounds evaluated are reported by compound number given in Example 40.
as §2

[8] = system: CYPERUS SEROTINUS, ROTTB.; experiment: Preemergence weed control under flooded paddy conditions, CYPSE (Flatsedge); conditions: preemergence, 3-4 weeks after treatment
Protocol: as §1, §3, §2

[9] = system: CHENOPODIUM ALBUM, L.; experiment: Preemergence herbicidal evaluation, CHEAL (Lambsquarters, Common); conditions: rated four to five weeks after treatment
Excerpt: as §1
The preemergence herbicidal activity of the test compounds of the present invention is exemplified by the following tests in which the seeds of a variety of monocotyledonous and dicotyledonous plants are separately mixed with potting soil and planted on top of approximately one inch of soil in separate pint cups. […] The treated cups are then placed on greenhouse benches, watered and cared for in accordance with conventional greenhouse procedures. From four to five weeks after treatment, the tests are terminated and each cup is examined and rated according to the rating system provided in Example 40.
The compounds evaluated are reported by compound number given in Example 40.

[10] = system: AMBROSIA ARTEMISIIFOLIA, L.; experiment: Postemergence herbicidal evaluation, AMBEL (Ragweed, Common); conditions: rated four to five weeks after treatment, averaged
Protocol: as §4, §5, §1

[11] = system: ECHINOCHLOA ORYZOIDES (ARD.)FRITSCH; experiment: Preemergence weed control under flooded paddy conditions, ECHORC (Watergrass (Calif.)); conditions: preemergence, 3-4 weeks after treatment
Protocol: as §1, §3, §2

[12] = system: CHENOPODIUM ALBUM, L.; experiment: Postemergence herbicidal evaluation, CHEAL (Lambsquarters, Common); conditions: rated four to five weeks after treatment, averaged
Protocol: as §4, §5, §1

SMILES	Herbicidal effect rating, ORYSAT ([1]; 0.063 kg/ha)	Herbicidal effect rating, ORYSAT ([1]; 0.125 kg/ha)	Herbicidal effect rating, ORYSAT ([1]; 0.250 kg/ha)	Herbicidal effect rating, ORYSAT ([1]; 0.500 kg/ha)	Herbicidal effect rating, SAGPY ([2]; 0.063 kg/ha)	Herbicidal effect rating, SAGPY ([2]; 0.125 kg/ha)	Herbicidal effect rating, SAGPY ([2]; 0.250 kg/ha)	Herbicidal effect rating, SAGPY ([2]; 0.500 kg/ha)	IPOSS, herbicide rating (0-9) ([3]; Rate 0.125 kg/ha)	IPOSS, herbicide rating (0-9) ([3]; Rate 0.250 kg/ha)	ABUTH, herbicide rating (0-9) ([4]; Rate 0.125 kg/ha)	ABUTH, herbicide rating (0-9) ([4]; Rate 0.250 kg/ha)	ABUTH, herbicide rating (0-9) ([4]; Rate 0.500 kg/ha)	CASOB, herbicide rating (0-9) ([5]; Rate 0.125 kg/ha)	CASOB, herbicide rating (0-9) ([5]; Rate 0.250 kg/ha)	CASOB, herbicide rating (0-9) ([5]; Rate 0.500 kg/ha)	Herbicidal effect rating, MOOVA ([7]; 0.063 kg/ha)	Herbicidal effect rating, MOOVA ([7]; 0.125 kg/ha)	Herbicidal effect rating, MOOVA ([7]; 0.250 kg/ha)	Herbicidal effect rating, MOOVA ([7]; 0.500 kg/ha)	further results
COC(=O)Cn1c(=O)n(C)c(=O)n(-c2cc(Oc3ccc(Cl)cc3F)ccc2[N+](=O)[O-])c1=O [Compound 23, Methyl 3-[5-(4-chloro-2-fluorophenoxy)-2-nitrophenyl]tetrahydro-5-methyl-2,4,6-trioxo-s-triazine-1(2H)-acetate]	2.0	2.0	3.0	3.0	0.0	0.0	0.0	0.0	–	–	–	–	–	–	–	–	–	–	–	–	–
COC(=O)Cn1c(=O)n(C)c(=O)n(-c2cc(Oc3ccc(Cl)c(C)c3Cl)ccc2[N+](=O)[O-])c1=O [Compound 20, Methyl 3-{5-[(2,4-dichloro-m-tolyl)oxy]-2-nitrophenyl}tetrahydro-5-methyl-2,4,6-trioxo-s-triazine-1(2H)-acetate]	2.0	3.0	3.0	4.0	0.0	0.0	0.0	0.0	9.0	9.0	9.0	9.0	9.0	–	–	–	–	–	–	–	IPOSS, herbicide rating (0-9) ([3]; Rate 0.500 kg/ha): 9.0
COC(=O)Cn1c(=O)n(CC(=O)OC)c(=O)n(-c2cc(Oc3ccc(Cl)cc3Cl)ccc2[N+](=O)[O-])c1=O [Compound 19, Dimethyl 5-[5-(2,4-dichlorophenoxy)-2-nitro-phenyl]dihydro-2,4,6-trioxo-s-trizine-1,3-(2H,4H)-diacetate]	1.0	1.0	1.0	1.0	0.0	0.0	0.0	0.0	–	–	9.0	9.0	9.0	9.0	9.0	9.0	9.0	9.0	9.0	9.0	GALAP, herbicide rating (0-9) ([6]; Rate 0.125 kg/ha): 9.0; GALAP, herbicide rating (0-9) ([6]; Rate 0.250 kg/ha): 9.0; GALAP, herbicide rating (0-9) ([6]; Rate 0.500 kg/ha): 9.0; Herbicidal effect rating, CYPSE ([8]; 0.063 kg/ha): 0.0; Herbicidal effect rating, CYPSE ([8]; 0.125 kg/ha): 0.0; Herbicidal effect rating, CYPSE ([8]; 0.250 kg/ha): 0.0; Herbicidal effect rating, CYPSE ([8]; 0.500 kg/ha): 0.0
Cn1c(=O)n(CC(=O)O)c(=O)n(-c2cc(Oc3c(F)cc(C(F)(F)F)cc3Cl)ccc2[N+](=O)[O-])c1=O [Compound 15, 3-{5-[(2-Chloro-α,α,α,6-tetrafluoro-p-tolyl)oxy]-2-nitrophenyl}tetrahydro-5-methyl-2,4,6-trioxo-s-triazine-1(2H)-acetic acid]	4.5	4.5	7.0	7.0	–	–	–	–	–	–	9.0	9.0	9.0	9.0	9.0	9.0	9.0	9.0	9.0	9.0	CHEAL herbicidal rating ([9]; Rate 0.125 kg/ha): 9.0; CHEAL herbicidal rating ([9]; Rate 0.250 kg/ha): 9.0; CHEAL herbicidal rating ([9]; Rate 0.500 kg/ha): 9.0; AMBEL, herbicide rating (0-9) ([10]; Rate 0.125 kg/ha): 9.0; AMBEL, herbicide rating (0-9) ([10]; Rate 0.250 kg/ha): 9.0; AMBEL, herbicide rating (0-9) ([10]; Rate 0.500 kg/ha): 9.0
COC(=O)Cn1c(=O)n(C)c(=O)n(-c2cc(Oc3ccc(Cl)cc3Cl)ccc2[N+](=O)[O-])c1=O [Compound 18, Methyl 3-[5-(2,4-dichlorophenoxy)-2-nitrophenyl]tetrahydro-5-methyl-2,4,6-trioxo-s-trizine-1(2H)-acetate]	2.0	3.0	3.0	4.0	–	–	–	–	9.0	9.0	9.0	9.0	9.0	9.0	9.0	9.0	9.0	9.0	9.0	9.0	IPOSS, herbicide rating (0-9) ([3]; Rate 0.500 kg/ha): 9.0; GALAP, herbicide rating (0-9) ([6]; Rate 0.125 kg/ha): 9.0; GALAP, herbicide rating (0-9) ([6]; Rate 0.250 kg/ha): 9.0; GALAP, herbicide rating (0-9) ([6]; Rate 0.500 kg/ha): 9.0; Herbicidal effect rating, ECHORC ([11]; 0.063 kg/ha): 9.0; Herbicidal effect rating, ECHORC ([11]; 0.125 kg/ha): 9.0; Herbicidal effect rating, ECHORC ([11]; 0.250 kg/ha): 9.0; Herbicidal effect rating, ECHORC ([11]; 0.500 kg/ha): 9.0; CHEAL, herbicide rating (0-9) ([12]; Rate 0.125 kg/ha): 9.0; CHEAL, herbicide rating (0-9) ([12]; Rate 0.250 kg/ha): 9.0; CHEAL, herbicide rating (0-9) ([12]; Rate 0.500 kg/ha): 9.0
COC(=O)Cn1c(=O)n(C)c(=O)n(-c2cc(Oc3ccc(Cl)c(Cl)c3Cl)ccc2[N+](=O)[O-])c1=O [Compound 26, Methyl 3-[2-nitro-5-(2,3,4-trichlorophen-oxy)phenyl]tetrahydro-5-methyl-2,4,6-tri-oxo-s-triazine-1(2H)-acetate]	2.0	2.0	3.0	3.0	0.0	0.0	0.0	0.0	–	–	–	–	–	–	–	–	–	–	–	–	–
